Assay results reported in US5773430A, “Serine proteinase inhibitory activity by hydrophobic tetracycline” (Research Foundation of State University of New York, priority 1997, dated 1998).
“Also recorded” adds a separate entry of the source. Read-outs that look alike come from different tables or passages of the source.

What was measured:
[1] = test system: human neutrophils (live PMN's); experiment: Neutrophil (PMN + 0.5 nM PMA)-mediated R22-ECM hydrolysis (3H-proline cpm released in 6 h); type: cell-based
Text: The activity of various tetracyclines was investigated employing an in vitro assay of inflammatory tissue injury in which human neutrophils are allowed to degrade a biosynthetically prepared complete interstitial stromal extracellular matrix (ECM). A neutrophil is one type of leukocyte (polymorphonuclear leukocyte). […] E. J. Roemer, K. J. Stanton, and S. R. Simon, "In Vitro Assay Systems for Inflammatory Cell-Mediated Damage to Interstitial Extracellular Matrix," In Vitro Toxicol. 7,75-81 (1994); E. J. Roemer, K. J. Stanton, and S. R. Simon, "In Vitro Assay Systems for Cell Interactions With Interstitial Extracellular Matrix," In Vitro Toxicol. 7,209-224 (1994).
The serine proteinase inhibiting activity of tetracyclines was tested using an in vitro assay of inflammatory tissue injury in which human neutrophils (live PMN's) were allowed to degrade a biosynthetically prepared complete interstitial stromal extracellular matrix (ECM) produced by cultured R22 rat heart smooth muscle cells as described by Roemer et al. (E. J. Roemer, K. J. Stanton, and S. R. Simon, "In Vitro Assay Systems for Inflammatory Cell-Mediated Damage to Interstitial Extracellular Matrix," In Vitro Toxicol. 7,75-81 (1994); E. J. Roemer, K. J. Stanton, and S. R. Simon, "In Vitro Assay Systems for Cell Interactions With Interstitial Extracellular Matrix," In Vitro Toxicol. 7,209-224 (1994)). Ten different chemically modified tetracyclines (CMTs) designated CMT-1 through CMT-10 and doxycycline, at concentrations ranging from 5 μM to 50 μM, were added to the ECM simultaneously with a suspension of 2×10^6 viable human PMN/mL in Hank's balanced salts solution (HBSS). In these studies, the ECM was metabolically radiolabeled with ^3 H-proline, and counts solubilized after six hours of incubation were measured and compared with counts released after incubation with PMN alone.

[2] = target: T1, leukocyte elastase (Homo sapiens, UniProt P08246); experiment: Leukocyte elastase inhibitory activity; type: biochemical
T1 sequence (P08246 30-247): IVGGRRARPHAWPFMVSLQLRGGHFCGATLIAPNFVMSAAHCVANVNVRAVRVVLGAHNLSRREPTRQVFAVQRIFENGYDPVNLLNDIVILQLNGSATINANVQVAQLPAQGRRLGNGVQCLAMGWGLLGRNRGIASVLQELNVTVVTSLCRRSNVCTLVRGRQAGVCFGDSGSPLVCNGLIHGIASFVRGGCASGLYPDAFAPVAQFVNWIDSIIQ

[3] = target: T2, human leukocyte elastase (HLE) (Homo sapiens, UniProt P08246); experiment: ECM degradation mediated by purified HLE; type: biochemical
T2 sequence (P08246 30-267): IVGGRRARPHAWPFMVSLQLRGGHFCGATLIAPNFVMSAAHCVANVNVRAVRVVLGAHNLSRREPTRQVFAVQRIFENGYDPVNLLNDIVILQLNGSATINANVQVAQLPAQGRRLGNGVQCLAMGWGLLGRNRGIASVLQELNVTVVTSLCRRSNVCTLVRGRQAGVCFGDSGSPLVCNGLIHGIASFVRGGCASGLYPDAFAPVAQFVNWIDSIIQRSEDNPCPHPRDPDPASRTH
Procedure: Direct inhibition of HLE by CMT-3 was determined (Example 2) using a modification of the assay of human leukocyte elastase (HLE) activity described by Ying et al. (Q. Ying, A. R. Rinehart, S. R. Simon, and J. C. Cheronis, "Inhibition of Human Leukocyte Elastase by Ursolic Acid: Evidence for a Hydrophobic Binding Site for Pentacyclic Triterpenes," Biochem. J. 277, 521-526 (1991)) in which the organic solvent and detergent concentrations have been reduced, using a traditional assay of human leukocyte elastase (HLE) activity by measurement of the amidolysis of the chromogenic oligopeptide substrate, methoxysuccinyl-Ala-Ala-Pro-Val-p-nitroanilide. This oligopeptide is generally assumed to occupy the first five subsites of the extended substrate binding domain in HLE. […] When CMT-3 is employed in the assay of ECM degradation mediated by purified HLE rather than live neutrophils, it proves to be an effective inhibitor, with an apparent I50 of ~25-50 μM.
The capacity of CMT-3 to inhibit HLE is not confined to amidolytic assays, as already shown in FIG. 2, in which the degradation of a complete interstitial extracellular matrix by purified HLE is inhibited by CMT-3.

[4] = test system: leukocyte elastase; experiment: Leukocyte elastase activity in gingival extracts of LPS-injected rats; type: in vivo, rat; conditions: 2 mg or 5 mg CMT-3 daily, oral gavage, six days, succinyl-Ala-Ala-Ala-p-nitroanilide
Procedure: Rats received 0.01 mg of E. coli lipopolysaccharide (LPS) or only a vehicle of saline injected in a volume of 10 μl into the maxillary and mandibular labial gingiva on alternate days for a period of six days. Two sets of rats also received 2 mg or 5 mg CMT-3 daily in a volume of 1 ml, administered by oral gavage, for the six day period, while the other sets of rats received only the vehicle of 2% carboxymethylcellulose. At the end of the six day treatment period, the animals were sacrificed and the gingival tissues were dissected. The tissues from each experimental group were pooled, frozen and thawed, and extracted for assays of enzymatic activity according to the procedure of Yu et al. (Z. Yu, N. S. Ramamurthy, M. Leung, K. M. Chang, T. F. McNamara, and L. M. Golub, "Chemically Modified Tetracycline Normalizes Collagen Metabolism in Diabetic Rats," J. Periodont. Res. 28, 420-428 (1993)). Leukocyte elastase activity was assayed using the substrate succinyl-Ala-Ala-Ala-p-nitroanilide according to the procedure of Ramamurthy and Golub (1983) (N. S. Ramamurthy, and L. M. Golub, "Diabetes Increases Collagenase Activity in Extracts of Rat Gingiva and Skin," J. Periodont. Res. 18, 23-30 (1983)). The finding reported here is the capacity of orally administered CMT-3 to reduce the level of leukocyte elastase activity in the gingival extracts of LPS-injected rats. […]

[5] = target: T2, human leukocyte elastase (HLE); experiment: HLE amidolytic activity (methoxysuccinyl-Ala-Ala-Pro-Val-p-nitroanilide); type: biochemical
Text: This oligopeptide is generally assumed to occupy the first five subsites of the extended substrate binding domain in HLE.
To avoid time-dependent adsorption of HLE onto the wells of the 96-well microplates used in the amidolytic assays, the plates were pretreated with a solution of 0.2% bovine serum albumin. […] The […] concentration at which the Dixon plots intersect is a measure of Ki for the inhibitor.
The inhibitory activity of doxycycline towards amidolysis of methoxysuccinyl-Ala-Ala-Pro-Val-p-nitroanilide by HLE was also determined in the presence of 2% DMSO and no detergent, as described above for CMT-3.

[6] = target: T2, human leukocyte elastase (HLE); experiment: as above; type: biochemical; conditions: in the presence of 10% dimethylsulfoxide and 0.1% Triton X-100

NC(=O)C1=C(O)C2(O)C(=O)C3=C(O)c4c(O)cccc4CC3CC2CC1=O (stereo not drawn) [CMT-3, 6-demethyl-6-deoxy-4-de(dimethylamino)tetracycline]
inhibition of neutrophil-mediated ECM degradation [1]: ~ 50%
capacity to inhibit ECM degradation (protecting the ECM from neutrophil-mediated destruction), in words ([1]; 30 μM, FIG. 1): far superior to other tetracyclines in protecting the ECM from neutrophil-mediated destruction
inhibition of ECM degradation, in words ([1]; 5-50 μM, Table 1 and FIG. 1): good inhibition of ECM degradation at all doses employed in this assay
inhibition of neutrophil-mediated ECM degradation ([1]; 25-50 μM, dose response studies): approximately 50%
activity at 5 µM ([1]; Homo sapiens, Neutrophil, 5 μm, control = hydrolysis in absence of any inhibitor normalized to 100%, 6 h at 37° C.): 69%
activity at 25 µM ([1]; Homo sapiens, Neutrophil, 25 μm, control = hydrolysis in absence of any inhibitor normalized to 100%, 6 h at 37° C.): 55%
activity at 50 µM ([1]; Homo sapiens, Neutrophil, 50 μm, control = hydrolysis in absence of any inhibitor normalized to 100%, 6 h at 37° C.): 50%
leukocyte elastase inhibitory activity, in words [2]: substantial leukocyte elastase inhibitory activity
inhibition of HLE-mediated degradation of ECM, in words ([3]; FIG. 2: 25 μM CMT-3, 10 μM purified HLE, compared with PMN, other tetracyclines at comparable doses): comparable inhibition of human neutrophil-mediated and human leukocyte elastase-mediated degradation of extracellular matrix; also recorded: comparable to that determined from the assays of HLE amidolytic activity
IC50 ([3]; purified HLE rather than live neutrophils, read-out: apparent I50, ECM degradation mediated by purified HLE): 25 to 50 µM
leukocyte elastase activity in gingival extracts, in words [4]: reduced the activity of leukocyte elastase; also recorded: to the levels detected in animals receiving gingival injections of saline solution alone
Ki ([5]; 2% DMSO, no detergent, 100 μM through 300 μM substrate, Dixon plot, read-out: Ki for inhibition of amidolytic activity of HLE): 25 to 40 µM
mechanism of inhibition of HLE amidolytic activity ([5]; Dixon and Cornish-Bowden plots): predominantly competitive inhibitor
Ki ([5]; Dixon and Cornish-Bowden plots, FIGS. 3-5, read-out: apparent K1, inhibition of amidolysis): 18 to 40 µM
inhibitory potency, HLE amidolytic activity, in words [6]: markedly reduced
